Experimental findings from patent US9688624B2, “DP2 antagonist and uses thereof” (Brickell Biotech, Inc., priority 2010, dated 2017) are described below.

The structures appear in SMILES notation. Where a name gives a salt, the structure may show the parent alone. Read-outs that look alike come from different tables or passages of the source. Some results are limits rather than exact numbers.

In data set [1] the target is T1, DP2 receptor (Homo sapiens (Human), UniProt Q9Y5Y4). In words: Phase I single ascending dose study, ex vivo PGD2-induced blood eosinophil shape change (ESC). The data set is classed as in vivo. The conditions noted are these: humans. The method, then:
Procedure Evaluate Effects of Compound 1 on Ex Vivo PGD2-Induced Blood Eosinophil Shape Change (ESC)
Pre dose blood is drawn and challenged with PGD2 to determine baseline shape change as described above in Example 17. At varying times after dosing blood is drawn for both pharmacokinetic analyses of drug concentration in blood, and also for PGD2 challenge and eosinophil shape change determination. The extent of receptor blockage is determined from the relationship between drug blood concentration and percentage inhibition of eosinophil shape change.

For the next data set, the target named is CYP1A2 (Homo sapiens (Human), UniProt P05177). The note with it: microsomes, pH 7.4.
Another data set has as its target CYP2C19 (Homo sapiens (Human), UniProt P33261). In words: Extracellular cytochrome P450 inhibition (microsomes). The conditions noted are these: IC50 (μM), 2C19, mephenytoin 4′-hydroxylation.
Data set [2] is described as follows: Capsule formulation pharmacokinetics in male Beagle dogs. The data set is classed as in vivo. The conditions noted are these: dog, fasted; for half-life: read-out: t1/2 24 hr (converted). The method, then: In a separate study, male Beagle dogs were dosed with the capsule formulations as described herein.
A short description of data set [3]: Gravimetric vapour sorption (GVS). Format: physicochemical. The note with it: 25° C. The method, then:
Example 5: Gravimetric Vapour Sorption (GVS)
Sorption isotherms were obtained using a SMS DVS Intrinsic moisture sorption analyzer, controlled by SMS Analysis Suite software. The sample temperature was maintained at 25° C. by the instrument controls. The humidity was controlled by mixing streams of dry and wet nitrogen, with a total flow rate of 200 ml·min-1. The relative humidity was measured by a calibrated Rotronic probe (dynamic range of 1.0-100% RH), located near the sample. The weight change, (mass relaxation) of the sample as a function of % RH was constantly monitored by the microbalance (accuracy ±0.005 mg). Typically 5-20 mg of sample was placed in a tared mesh stainless steel basket under ambient conditions. The sample was loaded and unloaded at 40% RH and 25° C. (typical room conditions). A moisture sorption isotherm was performed as outlined below (2 scans giving 1 complete cycle). The standard isotherm was performed at 25° C. at 10% RH intervals over a 0.5-90% RH range

In data set [4] the test system is smoke-induced pulmonary inflammation. The data set can be described thus: Mouse smoke model of chronic obstructive pulmonary disease. The data set is classed as in vivo. The conditions noted are these: 10 and 50 mg/kg PO daily. The method, then:
Example 21: Mouse Smoke Model of Chronic Obstructive Pulmonary Disease
A mouse model of acute cigarette smoke exposure was used to determine the effects of Compound 1 on smoke-induced pulmonary inflammation.
(§1) BALB/c mice were exposed to the smoke of 7 unfiltered cigarettes per day via whole-body exposure on days 0, 1, and 2 for a total of 1.75 hours per day. […] The plasma concentrations for Compound 1 measured at trough were 85 and 588 nM at 10 mg/kg and 50 mg/kg, respectively.

For another data set, the target named is CYP2C9 (Homo sapiens (Human), UniProt P11712). The data set can be described thus: Extracellular cytochrome P450 inhibition (microsomes). Format: in vitro ADME. The conditions noted are these: 2C9, diclofenac 4′-hydroxylation.
Data set [5] concerns the target T1, DP2 receptor. The data set can be described thus: In vitro DP2/CRTH2 radioligand ([3H]PGD2) membrane binding assay. The method, then:
Example 15: In Vitro DP2/CRTH2 Binding Assay
The ability of Compound 1 to bind to the human DP2 receptor was assessed via a radioligand binding assay using [^3H]PGD2. HEK293 cells stably expressing recombinant human DP2 are resuspended in 10 mM Hepes, 7.4 containing 1 mM DTT, lysed and centrifuged at 75,000×g to pellet the membranes. The membranes are resuspended in 10 mM Hepes, 7.4 containing 1 mM DTT and 10% glycerol to approximately 5 mg protein/ml. […] The reactions are terminated by rapid filtration through Whatman GF/C glass fibre filter plates. The filter plates were pre-soaked in 0.33% polythylenimine for 30 minutes at room temperature then washed in Wash Buffer (50 mM Hepes, 0.5 M NaCl pH 7.4) prior to harvesting. After harvesting, the filter plates are washed 3 times with 1 ml cold Wash Buffer then dried. Scintillant is then added to the plates and the radioactivity retained on the filters is determined on a Packard TopCount (Perkin Elmer). Specific binding is determined as total radioactive binding minus non-specific binding in the presence of 10 μM PGD2. IC50s were determined using GraphPad prism analysis of drug titration curves. Mouse, rat and guinea pig DP2 receptors were also investigated.
The binding potency of Compound 1 is only slightly shifted in the presence of species-specific serum albumin.

Data set [6] can be described thus: Plasma exposure in satellite group of mouse allergic rhinitis model. Format: in vivo. The conditions noted are these: Compound 2 10 mg/kg PO. The method, then:
Compound 2 was evaluated in a mouse model of ovalbumin (OVA)-induced allergic rhinitis in which nasal ovalbumin challenges to OVA-primed mice elicits an increase in sneezing and nasal rubs (Methods were adapted from those detailed in Nakaya, M., et al. 2006, Laboratory Investigation, 86:917-926). OVA-primed mice received an intranasal challenge of OVA daily for 5 consecutive days. The number of sneezes and nasal rubs were counted over an 8 minute recording session on days 1, 3 and 5 immediately following OVA challenge. OVA caused a significant increase in both sneezing behavior and nasal rubs when compared to intranasal phosphate buffered saline (PBS) challenge. […] The plasma exposure for Compound 1 measured in a satellite group was 1360 nM, 460 nM, 210 nM and 90 nM for time points 1, 2, 4, and 6 hr post-dose, respectively.

Data set [7] is described as follows: Plasma concentrations in mouse smoke model. Format: in vivo. The method, then:
as §1

Where [8] appears, read: male, Beagle, in vivo, po, Capsule, 5.6 mg/kg.
Where [9] appears, read: male, Beagle, in vivo, po, EC-Capsule (L100-55), 5 mg/kg.
Where [10] appears, read: male, Beagle, in vivo, IV saline, 2 mg/kg.

T1 sequence (Q9Y5Y4 whole entry): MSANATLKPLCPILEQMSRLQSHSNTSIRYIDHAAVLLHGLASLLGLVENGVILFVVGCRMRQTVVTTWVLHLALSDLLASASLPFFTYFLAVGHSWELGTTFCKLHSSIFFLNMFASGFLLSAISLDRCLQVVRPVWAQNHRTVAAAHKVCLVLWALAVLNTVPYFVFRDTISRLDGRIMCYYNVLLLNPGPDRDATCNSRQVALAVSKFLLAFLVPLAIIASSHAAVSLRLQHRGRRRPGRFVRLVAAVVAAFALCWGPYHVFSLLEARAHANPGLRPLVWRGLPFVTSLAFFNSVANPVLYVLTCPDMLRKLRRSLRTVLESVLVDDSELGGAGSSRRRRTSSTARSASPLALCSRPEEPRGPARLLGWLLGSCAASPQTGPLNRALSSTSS
Chain of CYP2C19 (P33261 whole entry): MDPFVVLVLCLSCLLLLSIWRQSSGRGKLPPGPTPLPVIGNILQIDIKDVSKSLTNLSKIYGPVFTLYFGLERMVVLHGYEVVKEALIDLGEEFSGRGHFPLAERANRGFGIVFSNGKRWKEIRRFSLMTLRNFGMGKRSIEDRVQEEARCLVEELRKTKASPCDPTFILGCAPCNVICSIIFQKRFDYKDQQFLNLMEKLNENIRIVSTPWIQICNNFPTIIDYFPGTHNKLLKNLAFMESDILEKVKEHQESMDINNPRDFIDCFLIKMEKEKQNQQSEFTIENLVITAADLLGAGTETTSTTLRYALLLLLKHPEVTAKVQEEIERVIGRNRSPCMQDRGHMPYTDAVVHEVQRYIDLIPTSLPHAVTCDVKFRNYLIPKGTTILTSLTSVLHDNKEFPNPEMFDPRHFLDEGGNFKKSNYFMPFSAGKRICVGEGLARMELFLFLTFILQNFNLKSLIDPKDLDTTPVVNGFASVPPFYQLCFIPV
Chain of CYP2C9 (P11712 whole entry): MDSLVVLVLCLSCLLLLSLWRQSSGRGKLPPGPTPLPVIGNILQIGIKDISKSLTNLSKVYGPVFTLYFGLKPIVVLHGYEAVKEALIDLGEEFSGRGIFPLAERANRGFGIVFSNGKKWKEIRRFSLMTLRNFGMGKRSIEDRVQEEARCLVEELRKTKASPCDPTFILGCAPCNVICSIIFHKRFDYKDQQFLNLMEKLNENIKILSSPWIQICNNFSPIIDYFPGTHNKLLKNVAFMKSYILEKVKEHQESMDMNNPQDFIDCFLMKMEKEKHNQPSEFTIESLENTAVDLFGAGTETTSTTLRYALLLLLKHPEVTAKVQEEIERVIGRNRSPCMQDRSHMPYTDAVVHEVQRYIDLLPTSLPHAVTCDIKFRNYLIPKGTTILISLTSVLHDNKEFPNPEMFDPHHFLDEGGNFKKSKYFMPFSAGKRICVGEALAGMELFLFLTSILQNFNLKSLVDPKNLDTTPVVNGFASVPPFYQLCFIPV
Chain of CYP1A2 (P05177 whole entry): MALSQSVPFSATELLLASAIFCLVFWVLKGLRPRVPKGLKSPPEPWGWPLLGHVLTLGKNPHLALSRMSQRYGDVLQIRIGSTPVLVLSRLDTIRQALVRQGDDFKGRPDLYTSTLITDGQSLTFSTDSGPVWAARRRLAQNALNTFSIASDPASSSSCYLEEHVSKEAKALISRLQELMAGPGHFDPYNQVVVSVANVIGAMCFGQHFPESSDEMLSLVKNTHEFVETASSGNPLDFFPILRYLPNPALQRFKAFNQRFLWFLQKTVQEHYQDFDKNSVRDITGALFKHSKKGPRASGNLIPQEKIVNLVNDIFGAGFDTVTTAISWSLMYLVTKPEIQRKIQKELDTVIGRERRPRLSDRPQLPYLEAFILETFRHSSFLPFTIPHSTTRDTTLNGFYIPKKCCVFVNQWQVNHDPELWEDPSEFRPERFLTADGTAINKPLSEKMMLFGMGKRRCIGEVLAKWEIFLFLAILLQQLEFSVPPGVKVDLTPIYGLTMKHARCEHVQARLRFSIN

`COc1ccc(CC(=O)O)cc1Oc1ccc(NC(=O)C(C)(C)C)cc1CSC(C)(C)C` [Compound 2, 2-(3-(2-((tert-butylthio)methyl)-4-(2,2-dimethyl-propionylamino)phenoxy)-4-methoxyphenyl)acetic acid, sodium salt]: the “24 hr PD response (inhibition of ex vivo ESC)” value at DP2 receptor [1] (500 mg single dose, 24 hr) is approximately 50%. Besides, the “pharmacodynamic dose response (ex vivo ESC inhibition)” value on DP2 receptor [1] (>150 mg, at 0.5, 2 hr and 8 hr) is “maximal inhibition achieved”. Also, on CYP1A2, the IC50 (commonly the concentration that gives 50% inhibition) is more than 50 µM. Further, the IC50 against CYP2C19 was more than 50 µM. Moreover, in data set [2] (IV saline, 2 mg/kg), the CO came out at 10.3 µg/mL and the ClPl is on record as 5.0 mL/min/kg. Moreover, in data set [2] (setting [8]), the AUC (commonly the area under the concentration-time curve, a measure of exposure) was 14300 ng·h/mL; the peak level (Cmax) was 4800 ng/mL; the Tmax (commonly the time from dosing to the highest level) turned out to be 2.1 h; the bioavailability turned out to be 78.6%. Also, in data set [2] (setting [8]), the half-life was 168 min. Further, in [2] (setting [9]), the AUC turned out to be 20900 ng·h/mL, the peak level (Cmax) was 14400 ng/mL, the Tmax is 1 h and the bioavailability is 128%. For the same molecule, the half-life in data set [2] (setting [9]) is 144 min. In data set [2] (setting [10]), the AUC came to 6500 ng·h/mL, the Tmax came out at 0.1 h and the half-life is 306 min. In addition, the Vd in data set [2] (male, Beagle, in vivo, IV saline, 2 mg/kg, read-out: VDss) is 0.9 L/kg. Moreover, in data set [3] (listed as Amorphous Compound 2, sodium salt), the “hygroscopicity (GVS observation)” value is given as “deliquesced”. In addition, the GVS mass change in [3] (at 80% R.H.) is on record as more than 30 % w/w. Further, in data set [4], the BALF lymphocytes result is given as “trend toward reducing” and the “decrease of BALF neutrophils compared to the untreated group” value was “approx. 50%”. Besides, on CYP2C9, the half-inhibitory concentration (IC50) is more than 50 µM.

As to `COc1ccc(CC(=O)O)cc1Oc1ccc(NC(=O)C(C)(C)C)cc1CSC(C)(C)C` [Compound 1, 2-(3-(2-((tert-butylthio)methyl)-4-(2,2-dimethyl-propionylamino)phenoxy)-4-methoxyphenyl)acetic acid], the IC50 on DP2 receptor [5] (average, 0.2% species-specific albumin, read-out: IC50, radioligand membrane binding on human DP2) stood at 19.7 nM; on DP2 receptor [5] (average, without serum albumin, read-out: IC50, inhibition of radiolabeled PGD2 binding to human DP2), 5.2 nM; at DP2 receptor [5] (in the presence of 0.5% serum albumin, read-out: IC50, binding to DP2), 19.7 nM. In data set [6] (1 hr post-dose), the concentration at 1 h stood at 1360 nM. The concentration at 2 h in data set [6] (2 hr post-dose, read-out: plasma exposure for Compound 1) turned out to be 460 nM. The concentration at 4 h in data set [6] (4 hr post-dose, read-out: plasma exposure for Compound 1) worked out at 210 nM. In addition, the concentration at 6 h in data set [6] (6 hr post-dose, read-out: plasma exposure for Compound 1) came out at 90 nM. In addition, the figures for the “plasma concentration for Compound 1 at trough” value in [7] (10 mg/kg PO daily) and in data set [7] (50 mg/kg PO daily) were 85 nM and 588 nM, respectively.
